Measured values taken from patent publication US20210113529A1, “MEDICINE FOR PREVENTING OR TREATING OPHTHALMIC DISEASE ASSOCIATED WITH ENHANCED INTRAOCULAR NEOVASCULARIZATION AND/OR INTRAOCULAR VASCULAR PERMEABILITY” (KYOTO UNIVERSITY, priority 2018, published 2021).
pEC50: −log10 of the molar value.

Assays:
S1P5 receptor = S1P5 receptor (Homo sapiens, UniProt Q9H228); conditions: GTP[γ35S] binding assay; report PLoS One, 2014, 9(10), e110819; read-out: EC50 for S1P5 receptor agonist activity; cited from earlier work
S1P5 receptor, sequence (Q9H228 whole entry): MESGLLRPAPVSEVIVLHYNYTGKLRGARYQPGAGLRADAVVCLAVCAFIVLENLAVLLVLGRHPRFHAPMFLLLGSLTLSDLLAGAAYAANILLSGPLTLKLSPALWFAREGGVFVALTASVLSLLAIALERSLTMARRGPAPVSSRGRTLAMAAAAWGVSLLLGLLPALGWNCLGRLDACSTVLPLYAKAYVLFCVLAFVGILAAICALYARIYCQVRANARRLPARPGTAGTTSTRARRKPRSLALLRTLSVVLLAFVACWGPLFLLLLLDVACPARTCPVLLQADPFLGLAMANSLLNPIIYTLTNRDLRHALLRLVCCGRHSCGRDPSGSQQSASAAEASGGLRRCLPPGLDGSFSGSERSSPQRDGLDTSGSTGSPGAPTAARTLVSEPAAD

[1] = tested on: lymphocytes in the peripheral blood; assay: Lymphocyte count in peripheral blood, C57BL/6J strain mice; assay type: in vivo; conditions: C57BL/6J mice, 24 hours from final administration
Procedure: Seven-week-old mice (Japan SLC, Inc., C57BL/6J strain) were repeatedly orally administered Compound 1 suspended in a vehicle (0.5% MC solution) at a dose of 0.003 mg/kg, 0.01 mg/kg, 0.03 mg/kg, 0.1 mg/kg, 0.3 mg/kg, or 1 mg/kg (in terms of free form) once daily for 14 days in the same manner as in Example 1. A control was administered only the vehicle (vehicle group). Experiments were performed using 5 mice in each group. At 24 hours from the final administration, blood was collected from the abdominal vena cava under isoflurane anesthesia using a heparin-treated syringe, and was mixed with ethylenediaminetetraacetic acid dipotassium salt (EDTA.2K) (1 mg). The lymphocyte count in the collected blood was measured using XT-2000iv (Sysmex Corporation).

[2] = tested on: lymphocytes in the peripheral blood; assay: Lymphocyte count in peripheral blood, ddy strain mice; assay type: in vivo; conditions: 0.03 mg/kg orally twice at an interval of 12 hours, 24 hours from second administration
Procedure: Next, 7-week-old mice (Japan SLC, Inc., ddy strain) were orally administered Compound 1 suspended in a vehicle (0.5% MC solution) at a dose of 0.03 mg/kg or 0.3 mg/kg (in terms of free form) twice at an interval of 12 hours in the same manner as in Example 2. A control was administered only the vehicle (vehicle group). Experiments were performed using 6 mice in each group. After 24 hours from the second administration, blood was collected from the abdominal vena cava under isoflurane anesthesia using a heparin-treated syringe, and was mixed with EDTA.2K (1 mg). The lymphocyte count in the collected blood was measured using XT-2000iv (Sysmex Corporation).

VEGF = VEGF production in CNV model (western blot of choroid-retinal pigment epithelium); assay type: in vivo, mice; conditions: 0.3 mg/kg orally once daily, 5 days after laser irradiation
Procedure: A CNV model generated by the same method as in Example 1 was orally administered Compound 1 suspended in a vehicle (0.5% MC solution) at a dose of 0.3 mg/kg (in terms of free form) once daily from the day before laser irradiation to the day of sampling. Controls were an untreated group (normal group) and a group administered only the vehicle (vehicle group). Experiments were performed using 6 mice in the Compound 1 administration group, 8 mice in the normal group, and 7 mice in the vehicle group. After 5 days from the laser irradiation, the mice were euthanized by cervical dislocation, and the eyeball was extirpated. Choroid-retinal pigment epithelium was isolated from the eyeball, and the expression amount of VEGF protein was measured by a western blot method using an anti-VEGF antibody (manufactured by Merck Millipore). In addition, the results of calculation of the expression amount of VEGF relative to that of β-actin with reference to the normal group are shown in FIG. 5(b).

[3] = tested on: retinal vein occlusion (RVO) model; assay: RVO model: retinal non perfusion area; assay type: in vivo, mice
Procedure: Eight-week-old mice (Japan SLC, Inc., ddy strain) were anesthetized by intramuscularly administering 10 mL/kg of a mixed anesthetic solution diluted so as to contain ketamine (120 mg/kg) and xylazine (6 mg/kg). After that, 0.15 mL of rose bengal (20 mg/kg; WAKO) was administered into the tail vein, and a vein three head systems away from the optic nerve head of the right eye of the mice was irradiated with a laser to occlude a retinal vein. Thus, a retinal non perfusion area was generated. For the occlusion, the laser irradiation was performed 10 times to 15 times per vein. For the laser irradiation, an attachment of a fundus photography apparatus Micron 4 (Phoenix Research Laboratories, Inc., Pleasanton, Calif., USA) was used (wavelength: 532 nm, spot size: 50 μm, irradiation time: 5,000 ms, laser output: 50 mW). Three veins were occluded per eye, and it was confirmed with photographs of the fundus that the laser-irradiated veins had been completely occluded. […]
The retinal flat mount specimen was photographed under a fluorescence microscope (BX50, Olympus) using a high-sensitivity cooling CCD camera (DP30BW, Olympus) through imaging software Metamorph (Universal Imaging Corp., Downingtown, Pa., USA) on an XY motor-operated stage (Sigma Koki Co., Ltd., Tokyo, Japan). […] The ratio of the retinal non perfusion area was quantified using analysis software in Metamorph. […]

Q: With `C[C@H](Oc1ccc(-c2nc(-c3ccc4[nH]cnc4c3)no2)cc1C(F)(F)F)C(F)(F)F.Cl` [Compound 1, 5-{5-[3-(trifluoromethyl)-4-{[(2S)-1,1,1-trifluoropropan-2-yl]oxy}phenyl]-1,2,4-oxadiazol-3-yl}-1H-benzimidazole monohydrochloride] as the molecule, how does the pEC50 (S1P5 receptor) read?
A: The pEC50 was 8.12.

Q: And the “lymphocytes in the peripheral blood” value ([1]; 0.03 mg/kg orally once daily for 14 days)?
A: Its value is “not found to have a significant action”.

Q: What about the “lymphocytes in the peripheral blood” value ([1]; 0.1 mg/kg or more orally once daily for 14 days) of the same molecule?
A: Its value is “significantly decreased lymphocytes in the peripheral blood”.

Q: What about the “lymphocytes in the peripheral blood” value [2] of the same molecule?
A: The value was “did not cause a significant decrease in lymphocytes in the peripheral blood”.

Q: What about the “expression of VEGF relative to β-actin, as compared to the vehicle group” value (VEGF) of the same molecule?
A: Its value is “significantly reduced the expression of VEGF”.

Q: What about the “enlargement of the non perfusion area” value ([3]; early administration: 0.3 mg/kg orally 12 hours before and immediately after laser irradiation) of the same molecule?
A: The value was “significantly reduced the enlargement of the non perfusion area”.

Q: What about the “enlargement of the non perfusion area” value ([3]; late administration: 0.3 mg/kg orally twice at an interval of 12 hours on the 7th day after laser irradiation) of the same molecule?
A: Its value is “significantly reduced the enlargement of the non perfusion area”.
